Assay [1] has as its target T1, RARα (Homo sapiens, UniProt P10276).
T1 sequence (P10276 183-417 limits assumed): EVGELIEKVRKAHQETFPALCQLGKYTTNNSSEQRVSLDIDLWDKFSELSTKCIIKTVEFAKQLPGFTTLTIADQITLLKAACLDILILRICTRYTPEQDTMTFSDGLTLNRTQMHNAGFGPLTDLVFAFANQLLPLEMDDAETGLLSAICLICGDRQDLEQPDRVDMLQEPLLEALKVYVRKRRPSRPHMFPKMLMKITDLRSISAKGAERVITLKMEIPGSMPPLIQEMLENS
The assay can be described thus: chimeric receptor transactivation assay, RARα. The format is cell-based. Conditions: EC50 line of EC50/(EFFICACY)/Kd, read-out: RAR α EC50. From the text: (§1) Assays described below measure the ability of a compound to bind to, and/or activate various retinoid receptor subtypes. When in these assays a compound binds to a given receptor subtype and activates the transcription of a reporter gene through that subtype, then the compound is considered an agonist of that receptor subtype. […] In the below described assays the ability of the compounds to bind to RARα, RARβ, RARγ, RXRα, RXRβ and RXRγ receptors, and the ability or inability of the compounds to activate transcription of a reporter gene through these receptor subtypes can be tested.
(§2) The results obtained in this assay are expressed in EC50 numbers, as they are also in the chimeric receptor transactivation assay. The results of ligand binding assay are expressed in Kd numbers.

Assay [2] has as its target T2, RARβ (Homo sapiens, UniProt P10826).
T2 sequence (P10826 183-417 limits assumed): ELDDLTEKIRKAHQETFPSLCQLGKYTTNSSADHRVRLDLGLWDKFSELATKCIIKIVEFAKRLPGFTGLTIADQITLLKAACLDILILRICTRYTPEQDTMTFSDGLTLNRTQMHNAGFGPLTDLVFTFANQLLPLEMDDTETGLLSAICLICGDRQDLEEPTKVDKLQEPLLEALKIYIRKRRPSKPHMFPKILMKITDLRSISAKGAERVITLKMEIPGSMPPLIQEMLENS
Briefly: chimeric receptor transactivation assay, RARβ. Type of assay: cell-based. The conditions noted are these: EC50 line of EC50/(EFFICACY)/Kd, read-out: RAR β EC50.
Text: as §1, §2

In assay [3] the target is T3, RARγ (Homo sapiens, UniProt P13631).
T3 sequence (P13631 185-454 limits assumed): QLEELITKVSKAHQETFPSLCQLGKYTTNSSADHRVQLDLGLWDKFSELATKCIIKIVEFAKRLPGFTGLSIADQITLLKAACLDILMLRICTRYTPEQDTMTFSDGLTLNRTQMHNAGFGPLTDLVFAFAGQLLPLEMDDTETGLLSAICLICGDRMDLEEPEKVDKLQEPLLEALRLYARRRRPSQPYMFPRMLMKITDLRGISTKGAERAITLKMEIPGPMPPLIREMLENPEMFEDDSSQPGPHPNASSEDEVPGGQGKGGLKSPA
The assay can be described thus: chimeric receptor transactivation assay, RARγ. Type of assay: cell-based. Conditions: EC50 line of EC50/(EFFICACY)/Kd, read-out: RAR γ EC50.
Text: as §1, §2

In assay [4] the target is T4, RARα (Homo sapiens, UniProt P10276).
T4 sequence (P10276 1-462): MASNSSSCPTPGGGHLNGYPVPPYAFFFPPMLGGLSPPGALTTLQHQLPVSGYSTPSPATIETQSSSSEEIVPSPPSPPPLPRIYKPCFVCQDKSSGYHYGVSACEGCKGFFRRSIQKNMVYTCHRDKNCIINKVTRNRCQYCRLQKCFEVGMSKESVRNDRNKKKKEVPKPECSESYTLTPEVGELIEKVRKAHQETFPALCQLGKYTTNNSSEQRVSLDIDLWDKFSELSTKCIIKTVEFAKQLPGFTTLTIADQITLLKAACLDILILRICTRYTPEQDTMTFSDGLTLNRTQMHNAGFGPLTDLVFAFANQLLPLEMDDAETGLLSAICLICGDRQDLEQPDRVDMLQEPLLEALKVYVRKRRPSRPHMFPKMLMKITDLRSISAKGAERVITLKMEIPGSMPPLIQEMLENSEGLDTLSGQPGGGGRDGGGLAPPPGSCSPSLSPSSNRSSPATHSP
The assay can be described thus: ligand binding assay, RARα. The conditions noted are these: Kd line of EC50/(EFFICACY)/Kd, K = thousand, read-out: RAR α Kd.
Text: as §1, §2

For assay [5], the target named is T5, RARβ (Homo sapiens, UniProt P10826).
T5 sequence (P10826 1-455): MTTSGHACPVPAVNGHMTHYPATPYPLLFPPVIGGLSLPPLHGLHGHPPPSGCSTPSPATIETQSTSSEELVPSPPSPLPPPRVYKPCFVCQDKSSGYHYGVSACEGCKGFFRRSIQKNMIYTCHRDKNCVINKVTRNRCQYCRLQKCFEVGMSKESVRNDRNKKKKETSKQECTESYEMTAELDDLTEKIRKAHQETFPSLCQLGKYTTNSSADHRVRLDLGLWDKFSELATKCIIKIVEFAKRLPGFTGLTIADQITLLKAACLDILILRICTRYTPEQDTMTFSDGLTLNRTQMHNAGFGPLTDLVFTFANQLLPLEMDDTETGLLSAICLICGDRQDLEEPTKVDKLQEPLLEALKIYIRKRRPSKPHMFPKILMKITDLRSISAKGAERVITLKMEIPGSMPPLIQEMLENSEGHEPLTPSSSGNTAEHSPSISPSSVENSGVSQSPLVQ
Briefly: ligand binding assay, RARβ. The conditions noted are these: Kd line of EC50/(EFFICACY)/Kd, K = thousand, read-out: RAR β Kd.
Text: as §1, §2

Assay [6] deals with T6, RARγ (Homo sapiens, UniProt P13631).
T6 sequence (P13631 1-454): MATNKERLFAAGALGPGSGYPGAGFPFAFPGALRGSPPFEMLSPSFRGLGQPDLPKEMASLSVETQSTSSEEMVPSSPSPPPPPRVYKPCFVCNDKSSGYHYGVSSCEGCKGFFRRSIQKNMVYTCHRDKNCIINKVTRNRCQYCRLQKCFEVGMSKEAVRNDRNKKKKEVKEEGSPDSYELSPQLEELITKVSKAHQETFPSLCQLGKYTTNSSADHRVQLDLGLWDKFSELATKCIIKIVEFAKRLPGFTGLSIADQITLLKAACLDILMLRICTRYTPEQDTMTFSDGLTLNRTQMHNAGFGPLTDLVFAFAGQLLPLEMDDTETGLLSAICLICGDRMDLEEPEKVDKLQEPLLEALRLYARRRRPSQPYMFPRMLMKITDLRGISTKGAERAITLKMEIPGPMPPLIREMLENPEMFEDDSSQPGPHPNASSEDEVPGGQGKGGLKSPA
Briefly: ligand binding assay, RARγ. Conditions: Kd line of EC50/(EFFICACY)/Kd, K = thousand, read-out: RAR γ Kd.
Text: as §1, §2

One may read the EC50 as the concentration at which the effect is half-maximal. By Kd is commonly meant the free concentration of one partner at which half of the binding sites on the other are occupied at equilibrium, for simple one-to-one binding. Consider `CC1(C)CCSc2ccc(C#Cc3ccc(CCC(=O)O)cc3)cc21` [Compound 210], for which the values for the EC50 in assay [1], in assay [2] and in assay [3] were 89 nM, 18 nM and 15 nM, respectively. In addition, the values for the dissociation constant (Kd) in assay [4], in assay [5] and in assay [6] were 10 µM, 2890 nM and 10 µM, respectively.

These data come from patent publication US6855512B2, “Methods for identifying inhibitors of cytochrome P450RAI” (Allergan, Inc., priority 2000, dated 2005).
